Earlier results, collected in patent US20140243428A1, “SELF HEALING HYDROGELS” (The Regents of the University of California, priority 2013, published 2014).

pKa: 4.4
Structure (SMILES): NCCCCCC(=O)O [6-aminocaproic acid]
